pIC50, pKd: −log10 of the molar value. In brackets after ≈: the same amount, converted by molar mass. Activity calls are given as the source filed them. The calls are words filed in the database; no cut-off is given here.

T3 sequence (Q9BXF3 whole entry): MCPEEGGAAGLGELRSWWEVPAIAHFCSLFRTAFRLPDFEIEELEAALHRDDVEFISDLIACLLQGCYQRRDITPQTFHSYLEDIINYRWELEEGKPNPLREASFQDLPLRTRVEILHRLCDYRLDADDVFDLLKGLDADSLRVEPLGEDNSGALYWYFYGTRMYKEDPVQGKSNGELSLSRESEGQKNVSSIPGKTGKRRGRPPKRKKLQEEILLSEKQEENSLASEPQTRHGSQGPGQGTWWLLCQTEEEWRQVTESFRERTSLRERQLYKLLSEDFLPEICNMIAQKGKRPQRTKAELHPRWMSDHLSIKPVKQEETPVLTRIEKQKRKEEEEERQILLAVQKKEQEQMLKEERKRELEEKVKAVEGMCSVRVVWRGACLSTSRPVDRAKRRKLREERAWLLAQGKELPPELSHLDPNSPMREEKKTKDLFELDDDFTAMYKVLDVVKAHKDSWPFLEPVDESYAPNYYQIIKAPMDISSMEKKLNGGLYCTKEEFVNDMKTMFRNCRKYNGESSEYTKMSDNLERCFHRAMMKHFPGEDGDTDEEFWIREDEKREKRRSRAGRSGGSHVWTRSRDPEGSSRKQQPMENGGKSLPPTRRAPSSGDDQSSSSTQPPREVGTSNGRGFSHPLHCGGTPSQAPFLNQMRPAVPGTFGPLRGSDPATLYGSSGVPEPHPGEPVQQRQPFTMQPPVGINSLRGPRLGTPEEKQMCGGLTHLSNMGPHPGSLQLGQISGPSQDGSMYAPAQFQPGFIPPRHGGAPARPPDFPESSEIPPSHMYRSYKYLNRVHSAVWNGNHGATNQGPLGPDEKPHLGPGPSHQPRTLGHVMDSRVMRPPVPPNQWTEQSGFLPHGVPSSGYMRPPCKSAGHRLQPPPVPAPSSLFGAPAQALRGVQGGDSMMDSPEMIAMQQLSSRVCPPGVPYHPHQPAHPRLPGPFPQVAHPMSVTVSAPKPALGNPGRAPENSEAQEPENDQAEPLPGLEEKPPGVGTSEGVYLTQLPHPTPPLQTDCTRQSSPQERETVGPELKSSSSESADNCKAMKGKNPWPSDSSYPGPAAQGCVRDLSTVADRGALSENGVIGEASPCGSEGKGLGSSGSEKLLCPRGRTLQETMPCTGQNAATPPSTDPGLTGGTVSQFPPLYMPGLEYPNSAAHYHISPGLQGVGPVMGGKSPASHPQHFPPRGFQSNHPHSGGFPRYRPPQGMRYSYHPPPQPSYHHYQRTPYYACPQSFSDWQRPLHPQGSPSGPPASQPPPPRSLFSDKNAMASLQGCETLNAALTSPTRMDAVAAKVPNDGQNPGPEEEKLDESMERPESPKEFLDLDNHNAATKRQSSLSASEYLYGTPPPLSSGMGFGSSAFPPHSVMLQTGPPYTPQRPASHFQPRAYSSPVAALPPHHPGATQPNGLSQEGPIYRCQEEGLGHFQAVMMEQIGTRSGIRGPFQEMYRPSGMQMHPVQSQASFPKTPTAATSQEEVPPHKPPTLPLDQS

One series addresses T1, Bromodomain-containing protein 4 (Homo sapiens, UniProt O60885). Description: Inhibition of recombinant His-tagged BRD4 bromodomain 2 (unknown origin) after 10 mins by TR-FRET assay.
Details: not given
(Time-resolved FRET reads energy transfer from a long-lived donor to a nearby acceptor.)
The pIC50 is the IC50 on a negative log10 scale, so that one unit is a factor of ten. For the compound `C=CCCn1cc(-c2cc(OC(F)F)cc(C(=O)N3CCOCC3)c2)c2cc[nH]c2c1=O`, the pIC50 is 5.05.
Consider `C=CCCn1cc(-c2cc(C(=O)N3CCOCC3)c3c(c2)ncn3CC)c2cc[nH]c2c1=O`, for which the negative logarithm of the IC50 (pIC50) is 6.00.
As for `C=CCCn1cc(-c2cc(C(=O)N3CCOCC3)cc3[nH]cnc23)c2cc[nH]c2c1=O`, the pIC50 is less than 4.70.
On to `C=CCCn1cc(-c2cc(C(=O)N3CCOCC3)cc3c2ncn3C)c2cc[nH]c2c1=O`, for which the pIC50 was less than 4.70.
Turning to `C=CCCn1cc(-c2cnc(OC)c(C(=O)N3CCOCC3)c2)c2cc[nH]c2c1=O`, the pIC50 was 5.02.
As for `C=CCCn1cc(-c2cccc(C(=O)N(C)C3CCCCC3)c2)c2cc[nH]c2c1=O`, the pIC50 is 5.62.
With `C=CCCn1cc(-c2cc(C(=O)N3CCOCC3)c3ncn(C)c3c2)c2cc[nH]c2c1=O`, the pIC50 is 4.92.
With `C=CCCn1cc(-c2cnc(OCC)c(C(=O)N3CCOCC3)c2)c2cc[nH]c2c1=O`, the pIC50 was 5.12.
On to `C=CCCn1cc(-c2cccc(C(=O)N3CCN(CCO)CC3)c2)c2cc[nH]c2c1=O`, for which the pIC50 was 5.30.
The same measure, in the same setting: the value for `C=CCCn1cc(-c2cc(C(=O)N3CCOCC3)c3nc[nH]c3c2)c2cc[nH]c2c1=O` was 5.36; that for `C=CCCn1cc(-c2cc(C#N)cc(C(=O)N3CCOCC3)c2)c2cc[nH]c2c1=O` was 5.30; that for `C=CCCn1cc(-c2cc(C(=O)N3CCOCC3)c3c(c2)ncn3C)c2cc[nH]c2c1=O` was 5.36.
With `C=CCCn1cc(-c2cc(C(=O)N3CCOCC3)c3ncn(CC)c3c2)c2cc[nH]c2c1=O`, the pIC50 was 5.17.
In the case of `C=CCCn1cc(-c2cc(F)c(F)c(C(=O)N3CCOCC3)c2)c2cc[nH]c2c1=O`, the pIC50 is 4.77.

In a further series the target is T2, Transcription initiation factor TFIID subunit 1 (Homo sapiens, UniProt P21675). Description: Inhibition of recombinant His-tagged TAF1 bromodomain 1 (unknown origin) after 10 mins by TR-FRET assay.
T2 sequence (P21675 whole entry): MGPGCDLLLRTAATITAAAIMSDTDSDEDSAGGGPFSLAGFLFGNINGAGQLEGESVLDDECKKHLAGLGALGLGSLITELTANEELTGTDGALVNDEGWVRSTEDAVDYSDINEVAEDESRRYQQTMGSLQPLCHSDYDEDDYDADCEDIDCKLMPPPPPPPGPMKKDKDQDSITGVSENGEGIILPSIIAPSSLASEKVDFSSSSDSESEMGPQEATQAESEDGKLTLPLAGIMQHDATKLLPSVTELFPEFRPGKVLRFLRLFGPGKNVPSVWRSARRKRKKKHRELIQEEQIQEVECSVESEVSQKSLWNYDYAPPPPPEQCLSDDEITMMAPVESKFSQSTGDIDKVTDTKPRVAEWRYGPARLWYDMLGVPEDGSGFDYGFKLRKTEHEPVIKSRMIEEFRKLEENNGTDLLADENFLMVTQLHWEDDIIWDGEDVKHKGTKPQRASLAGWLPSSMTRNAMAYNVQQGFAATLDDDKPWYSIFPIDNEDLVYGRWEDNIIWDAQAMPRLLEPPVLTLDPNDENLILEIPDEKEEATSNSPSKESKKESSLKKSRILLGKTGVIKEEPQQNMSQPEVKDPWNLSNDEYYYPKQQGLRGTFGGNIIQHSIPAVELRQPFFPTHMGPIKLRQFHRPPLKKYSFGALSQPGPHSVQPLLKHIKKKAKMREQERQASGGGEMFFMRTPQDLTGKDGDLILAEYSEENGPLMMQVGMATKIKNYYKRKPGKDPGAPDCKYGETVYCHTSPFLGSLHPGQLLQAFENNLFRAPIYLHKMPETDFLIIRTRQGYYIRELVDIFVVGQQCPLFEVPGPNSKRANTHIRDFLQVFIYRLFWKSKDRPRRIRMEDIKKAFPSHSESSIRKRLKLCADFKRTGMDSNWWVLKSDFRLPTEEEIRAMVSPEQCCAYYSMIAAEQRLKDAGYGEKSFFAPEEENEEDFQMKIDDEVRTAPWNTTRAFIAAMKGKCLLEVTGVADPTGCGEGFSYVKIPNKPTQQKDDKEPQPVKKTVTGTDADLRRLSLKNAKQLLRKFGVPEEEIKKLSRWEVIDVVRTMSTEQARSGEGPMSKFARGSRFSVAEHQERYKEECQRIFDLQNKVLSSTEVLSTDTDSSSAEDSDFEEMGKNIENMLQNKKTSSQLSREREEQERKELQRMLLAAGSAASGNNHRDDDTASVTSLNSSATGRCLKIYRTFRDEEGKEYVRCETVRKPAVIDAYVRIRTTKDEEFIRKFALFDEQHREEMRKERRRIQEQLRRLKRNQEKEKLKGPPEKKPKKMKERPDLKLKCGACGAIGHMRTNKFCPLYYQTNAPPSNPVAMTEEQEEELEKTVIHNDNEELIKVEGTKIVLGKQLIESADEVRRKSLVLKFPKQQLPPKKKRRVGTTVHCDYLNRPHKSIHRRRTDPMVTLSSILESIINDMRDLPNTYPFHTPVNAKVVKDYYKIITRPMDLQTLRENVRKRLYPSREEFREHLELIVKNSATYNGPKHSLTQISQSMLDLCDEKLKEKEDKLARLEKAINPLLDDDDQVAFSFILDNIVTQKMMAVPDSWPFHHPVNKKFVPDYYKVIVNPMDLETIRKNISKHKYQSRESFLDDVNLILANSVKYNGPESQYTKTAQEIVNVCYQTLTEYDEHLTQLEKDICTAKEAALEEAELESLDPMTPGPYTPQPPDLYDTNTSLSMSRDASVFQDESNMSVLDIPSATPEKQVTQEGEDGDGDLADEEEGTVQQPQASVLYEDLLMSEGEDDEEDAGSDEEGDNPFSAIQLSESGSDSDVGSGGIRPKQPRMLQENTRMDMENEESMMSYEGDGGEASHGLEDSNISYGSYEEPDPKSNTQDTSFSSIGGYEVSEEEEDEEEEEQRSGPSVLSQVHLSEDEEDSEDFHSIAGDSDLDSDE
Details: not given
As to `C=CCCn1cc(-c2cc(C(=O)N3CCOCC3)c3c(c2)ncn3CC)c2cc[nH]c2c1=O`, the pIC50 is less than 4.70.
Turning to `C=CCCn1cc(-c2cnc(OC)c(C(=O)N3CCOCC3)c2)c2cc[nH]c2c1=O`, the pIC50 was 5.16.
On to `C=CCCn1cc(-c2cccc(C(=O)N(C)C3CCCCC3)c2)c2cc[nH]c2c1=O`, for which the negative-log IC50 (pIC50) is 4.89.
Still for that read-out and setting: the same measure for `C=CCCn1cc(-c2cnc(OCC)c(C(=O)N3CCOCC3)c2)c2cc[nH]c2c1=O`: 5.28; for `C=CCCn1cc(-c2cccc(C(=O)N3CCN(CCO)CC3)c2)c2cc[nH]c2c1=O`: 4.85.

A further series relates to NCI-H23. Briefly: Synergistic cytotoxicity against human H23 cells assessed as reduction in cell viability at 100 nM after 48 hrs in presence of BRD4 inhibitor JQ1 by celltiter-glo assay. The class given is functional, cell-based.
Details: not given
On the technique in general: Cellular ATP, detected with luciferase, serves as a proxy for viable cell number.
Consider `C=CCCn1cc(-c2cc(C(=O)N3CCOCC3)cc3c2ncn3C)c2cc[nH]c2c1=O`, for which the outcome was Active.

Another series addresses T3, Chromatin remodeling regulator CECR2 (Homo sapiens, UniProt Q9BXF3).
Details: not given
Broadly, the pKd is the negative decadic logarithm of the Kd, by convention in mol/L. The compound `C=CCCn1cc(-c2cc(C(=O)N3CCOCC3)cc3c2ncn3C)c2cc[nH]c2c1=O` gave a pKd of 5.92.

Another series addresses T1, Bromodomain-containing protein 4. Briefly: Inhibition of recombinant His-tagged BRD4 bromodomain 1 (unknown origin) after 10 mins by TR-FRET assay.
Details: not given
Consider `C=CCCn1cc(-c2cc(OC(F)F)cc(C(=O)N3CCOCC3)c2)c2cc[nH]c2c1=O`, for which the pIC50 is 6.22.
In the case of `C=CCCn1cc(-c2cc(C(=O)N3CCOCC3)c3c(c2)ncn3CC)c2cc[nH]c2c1=O`, the pIC50 is 5.70.
On the same count and under the same terms, the value for `C=CCCn1cc(-c2cc(C(=O)N3CCOCC3)cc3[nH]cnc23)c2cc[nH]c2c1=O` was less than 4.70; that for `C=CCCn1cc(-c2cc(C(=O)N3CCOCC3)cc3c2ncn3C)c2cc[nH]c2c1=O` was less than 4.70; that for `C=CCCn1cc(-c2cnc(OC)c(C(=O)N3CCOCC3)c2)c2cc[nH]c2c1=O` was 5.07.
Consider `C=CCCn1cc(-c2cccc(C(=O)N(C)C3CCCCC3)c2)c2cc[nH]c2c1=O`, for which the negative-log IC50 (pIC50) is 6.12.
Regarding `C=CCCn1cc(-c2cc(C(=O)N3CCOCC3)c3ncn(C)c3c2)c2cc[nH]c2c1=O`, the pIC50 is 5.09.
For `C=CCCn1cc(-c2cnc(OCC)c(C(=O)N3CCOCC3)c2)c2cc[nH]c2c1=O`, the pIC50 is 5.20.
`C=CCCn1cc(-c2cccc(C(=O)N3CCN(CCO)CC3)c2)c2cc[nH]c2c1=O`: the pIC50 is 5.49.
Consider `C=CCCn1cc(-c2cc(C(=O)N3CCOCC3)c3nc[nH]c3c2)c2cc[nH]c2c1=O`, for which the negative-log IC50 (pIC50) is 5.64.
Turning to `C=CCCn1cc(-c2cc(C#N)cc(C(=O)N3CCOCC3)c2)c2cc[nH]c2c1=O`, the pIC50 was 5.74.
As for `C=CCCn1cc(-c2cc(C(=O)N3CCOCC3)c3c(c2)ncn3C)c2cc[nH]c2c1=O`, the pIC50 was 5.44.
Same read-out and setting: the value for `C=CCCn1cc(-c2cc(C(=O)N3CCOCC3)c3ncn(CC)c3c2)c2cc[nH]c2c1=O` was 5.47; that for `C=CCCn1cc(-c2cc(F)c(F)c(C(=O)N3CCOCC3)c2)c2cc[nH]c2c1=O` was 5.10.

The target in a further series is Transcription initiation factor TFIID subunit 1-like (Homo sapiens, UniProt Q8IZX4). Briefly: Binding affinity to recombinant human full length DNA-tagged TAF1L bromodomain 2 (1523 to 1654 residues) expressed in bacterial expression system by bromoscan assay.
Details: not given
With `C=CCCn1cc(-c2cc(C(=O)N3CCOCC3)cc3c2ncn3C)c2cc[nH]c2c1=O`, the pKd was 8.30.

In the next series the target is T3, Chromatin remodeling regulator CECR2. Briefly: Inhibition of recombinant His-tagged CECR2 (unknown origin) after 10 mins by TR-FRET assay.
Details: not given
Consider `C=CCCn1cc(-c2cc(C(=O)N3CCOCC3)c3c(c2)ncn3CC)c2cc[nH]c2c1=O`, for which the pIC50 is 5.59.
Regarding `C=CCCn1cc(-c2cc(C(=O)N3CCOCC3)cc3c2ncn3C)c2cc[nH]c2c1=O`, the pIC50 is 5.92.
For the compound `C=CCCn1cc(-c2cnc(OC)c(C(=O)N3CCOCC3)c2)c2cc[nH]c2c1=O`, the pIC50 was 6.00.
Regarding `C=CCCn1cc(-c2cccc(C(=O)N(C)C3CCCCC3)c2)c2cc[nH]c2c1=O`, the negative logarithm of the IC50 (pIC50) was 5.40.
In the case of `C=CCCn1cc(-c2cc(C(=O)N3CCOCC3)c3ncn(C)c3c2)c2cc[nH]c2c1=O`, the pIC50 is 6.44.
For `C=CCCn1cc(-c2cnc(OCC)c(C(=O)N3CCOCC3)c2)c2cc[nH]c2c1=O`, the pIC50 is 6.23.
For the compound `C=CCCn1cc(-c2cccc(C(=O)N3CCN(CCO)CC3)c2)c2cc[nH]c2c1=O`, the negative logarithm of the IC50 (pIC50) is 5.96.
For `C=CCCn1cc(-c2cc(C(=O)N3CCOCC3)c3c(c2)ncn3C)c2cc[nH]c2c1=O`, the pIC50 is 6.64.

Test system in a further series: not listed separately
Description: Kinetic solubility of the compound. The format is physicochemical. To be noted: read-out: Kinetic_solubility.
As for `C=CCCn1cc(-c2cc(C(=O)N3CCOCC3)cc3c2ncn3C)c2cc[nH]c2c1=O`, the solubility kinetic came out at 121 µM (≈ 52.2 µg/mL).

For a further series, the target named is T2, Transcription initiation factor TFIID subunit 1. Briefly: Inhibition of recombinant His-tagged TAF1 bromodomain 2 (unknown origin) after 10 mins by TR-FRET assay.
Details: not given
For `C=CCCn1cc(-c2cc(C(=O)N3CCOCC3)c3c(c2)ncn3CC)c2cc[nH]c2c1=O`, the pIC50 was 7.80.
Regarding `C=CCCn1cc(-c2cnc(OC)c(C(=O)N3CCOCC3)c2)c2cc[nH]c2c1=O`, the pIC50 is 8.15.
Regarding `C=CCCn1cc(-c2cccc(C(=O)N(C)C3CCCCC3)c2)c2cc[nH]c2c1=O`, the pIC50 was 7.17.
Take `C=CCCn1cc(-c2cnc(OCC)c(C(=O)N3CCOCC3)c2)c2cc[nH]c2c1=O`: the pIC50 is 8.40.
As to `C=CCCn1cc(-c2cccc(C(=O)N3CCN(CCO)CC3)c2)c2cc[nH]c2c1=O`, the pIC50 is 7.08.

Another series has as its target T1, Bromodomain-containing protein 4. Briefly: Binding affinity to recombinant human full length DNA-tagged BRD4 short isoform expressed in bacterial expression system by bromoscan assay.
Details: not given
As to `C=CCCn1cc(-c2cc(C(=O)N3CCOCC3)cc3c2ncn3C)c2cc[nH]c2c1=O`, the negative logarithm of the Kd (pKd) is 5.05.

The target is the same in the next series. Conditions: 20 uM.
Take `C=CCCn1cc(-c2cc(C(=O)N3CCOCC3)cc3c2ncn3C)c2cc[nH]c2c1=O`: the inhibition entry is “inactive”.

Another series deals with CREB-binding protein (Homo sapiens, UniProt Q92793). Briefly: Inhibition of recombinant His-tagged CBP (unknown origin) after 10 mins by TR-FRET assay.
Details: not given
On to `C=CCCn1cc(-c2cccc(C(=O)N(C)C3CCCCC3)c2)c2cc[nH]c2c1=O`, for which the pIC50 is less than 4.70.
For the compound `C=CCCn1cc(-c2cccc(C(=O)N3CCN(CCO)CC3)c2)c2cc[nH]c2c1=O`, the pIC50 is less than 4.70.
